Calls of active or inactive are those of the source.
Experiments:
Cytochrome P450 3A4 = Cytochrome P450 3A4 (Homo sapiens, UniProt P08684);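 note: CYP3A4 tested as one member of a cytochrome P450 panel screen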
[1] = biological target: Type-1 angiotensin II receptor (Homo sapiens, UniProt P30556); experiment: agonist activity at AGTR1 – cell-based, uHTS hits, selectivity assay for APJ receptor agonist project, dose response (AID 488865); type: functional;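 note: beta-arrestin recruitment to AT1 measured by enzyme fragment complementation luminescence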
Chain of Type-1 angiotensin II receptor (P30556 whole entry, the tested form may be a part): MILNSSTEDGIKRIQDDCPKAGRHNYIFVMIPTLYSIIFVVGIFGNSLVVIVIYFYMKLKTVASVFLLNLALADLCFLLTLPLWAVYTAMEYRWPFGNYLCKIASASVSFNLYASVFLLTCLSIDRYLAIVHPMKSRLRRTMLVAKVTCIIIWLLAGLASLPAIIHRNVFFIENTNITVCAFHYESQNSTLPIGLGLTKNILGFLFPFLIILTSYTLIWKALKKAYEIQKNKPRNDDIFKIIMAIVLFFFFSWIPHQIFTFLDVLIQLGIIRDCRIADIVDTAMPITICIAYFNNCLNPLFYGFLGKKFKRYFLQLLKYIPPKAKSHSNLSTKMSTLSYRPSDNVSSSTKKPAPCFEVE

Perilipin-1/ABHD5 = Perilipin-1/ABHD5 (Homo sapiens, UniProt O60240+Q8WTS1); experiment: Luminescence-based biochemical high throughput dose response assay for inhibitors of the interaction of the lipase co-activator protein, abhydrolase domain containing 5 (ABHD5) with perilipin-1 (PLIN1) (2K validation set). [Related pubchem assays (depositor defined):AID493027, AID493057]
[2] = biological target: 1-acylglycerol-3-phosphate O-acyltransferase ABHD5/Perilipin-5 (Homo sapiens, UniProt Q00G26+Q8WTS1); experiment: Luminescence-based biochemical high throughput dose response assay for inhibitors of the interaction of the lipase co-activator protein, abhydrolase domain containing 5 (ABHD5) with perilipin-5 (MLDP; PLIN5) (2K validation set). [Related pubchem assays (depositor defined):AID493035, AID493241]
[3] = biological target: G-protein coupled receptor 55 (Homo sapiens, UniProt Q9Y2T6); experiment: selective activators of receptor GPR55 – imaging, U2OS cells, beta-arrestin-GFP redistribution, primary screen (AID 1961); type: functional
Chain of G-protein coupled receptor 55 (Q9Y2T6 whole entry): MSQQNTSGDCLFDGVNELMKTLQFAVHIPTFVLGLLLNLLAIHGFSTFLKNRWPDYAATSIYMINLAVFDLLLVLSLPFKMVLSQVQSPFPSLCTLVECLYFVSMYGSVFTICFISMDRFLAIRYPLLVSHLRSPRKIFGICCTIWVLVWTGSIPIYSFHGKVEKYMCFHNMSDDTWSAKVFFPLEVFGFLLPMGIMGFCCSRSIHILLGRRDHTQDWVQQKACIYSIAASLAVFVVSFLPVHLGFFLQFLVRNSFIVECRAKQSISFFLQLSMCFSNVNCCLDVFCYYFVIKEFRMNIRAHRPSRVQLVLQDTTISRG

[4] = biological target: Sphingosine 1-phosphate receptor 4 (Homo sapiens, UniProt O95977); experiment: potency of S1P4 activators – cell-based, fluorescence, synthesized compounds, late-stage follow-up (AID 463107); type: functional
Chain of Sphingosine 1-phosphate receptor 4 (O95977 whole entry): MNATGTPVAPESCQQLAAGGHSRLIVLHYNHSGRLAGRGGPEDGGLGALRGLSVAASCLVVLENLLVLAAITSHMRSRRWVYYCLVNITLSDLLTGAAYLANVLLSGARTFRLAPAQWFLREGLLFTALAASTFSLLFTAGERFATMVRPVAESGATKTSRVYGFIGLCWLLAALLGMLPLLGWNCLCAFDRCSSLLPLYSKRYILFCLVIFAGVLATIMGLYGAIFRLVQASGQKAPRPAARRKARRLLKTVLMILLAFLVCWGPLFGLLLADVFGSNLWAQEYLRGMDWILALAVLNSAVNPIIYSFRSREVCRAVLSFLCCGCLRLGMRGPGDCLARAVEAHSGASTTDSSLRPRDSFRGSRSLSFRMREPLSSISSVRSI

[5] = biological target: G2/mitotic-specific cyclin-B1 (Homo sapiens, UniProt P14635); experiment: Counterscreen assay for inhibitors of Wee1 degradation: dose response cell-based assay to identify inhibitors of cyclin B degradation. [Related pubchem assays: 1410, 1321 ]; type: functional
Chain of G2/mitotic-specific cyclin-B1 (P14635 whole entry): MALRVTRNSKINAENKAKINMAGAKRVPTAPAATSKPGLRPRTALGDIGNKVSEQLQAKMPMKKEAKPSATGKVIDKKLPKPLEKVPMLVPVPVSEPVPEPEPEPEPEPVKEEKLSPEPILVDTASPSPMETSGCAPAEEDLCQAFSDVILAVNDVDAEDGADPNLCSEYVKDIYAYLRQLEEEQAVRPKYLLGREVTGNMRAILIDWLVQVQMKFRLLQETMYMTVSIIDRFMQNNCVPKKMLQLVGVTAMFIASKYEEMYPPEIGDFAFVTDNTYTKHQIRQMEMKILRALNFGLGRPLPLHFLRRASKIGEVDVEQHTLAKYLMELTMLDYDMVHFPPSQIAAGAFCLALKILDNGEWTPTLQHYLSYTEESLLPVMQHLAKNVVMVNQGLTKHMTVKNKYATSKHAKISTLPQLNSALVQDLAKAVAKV

[6] = blockade of melanocortin 4 receptor signaling – cell-based, plate reader, cherry pick, counter-screen for LGR2 antagonist project, dose response (AID 743444); type: functional;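 note: transfected HEK 293 cells stimulated with alpha-MSH peptide; potency of inhibitors of the alpha-MSH evoked signal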
[7] = A549 cell cytotoxicity, dose response, cytotoxicity control, plate reader, cherry-pick, antagonist series (AID 743412); type: functional, cell-based
[8] = HepG2 cell cytotoxicity, dose response, cytotoxicity control for non-replicating M. tuberculosis project (AID 489018); type: functional; settings: Mycobacterium tuberculosis
[9] = reduction of Shn3 3'UTR-driven luciferase in osteoblasts – cell-based, Clone20 osteoblasts, firefly luciferase, cherry-picked, dose response (AID 624132); type: functional;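 note: firefly luciferase luminescence from reporter carrying the Shn3 3'UTR in osteoblasts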
HeLa = experiment: Cytotoxicity counterscreen assay for transcriptional activators of heat shock protein 70 (Hsp70). [Related pubchem assays: 1203, 1252 ]; type: functional; settings: Homo sapiens;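 note: cells exposed to compound for 16 hours before readout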
[10] = non-specific 3'UTR reporter inhibition in Clone20-Shn3RL – cell-based, Renilla luciferase, cherry-picked, counter-screen for Shn3 inhibitor project, dose response (AID 624133); type: functional
[11] = biological target: T1, Heat shock factor protein 1 (Mus musculus, UniProt P38532); experiment: decrease of HSF1-responsive luciferase luminescence – cell-based, NIH3T3, dose retest, confirmation (AID 2382); type: functional;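 note: NIH3T3 fibroblasts with HSF1-driven luciferase reporter stressed by proteasome inhibitor MG132; luminescence from HSF1-driven luciferase expression after 8 hours of MG132 stress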
T1 sequence (P38532 whole entry): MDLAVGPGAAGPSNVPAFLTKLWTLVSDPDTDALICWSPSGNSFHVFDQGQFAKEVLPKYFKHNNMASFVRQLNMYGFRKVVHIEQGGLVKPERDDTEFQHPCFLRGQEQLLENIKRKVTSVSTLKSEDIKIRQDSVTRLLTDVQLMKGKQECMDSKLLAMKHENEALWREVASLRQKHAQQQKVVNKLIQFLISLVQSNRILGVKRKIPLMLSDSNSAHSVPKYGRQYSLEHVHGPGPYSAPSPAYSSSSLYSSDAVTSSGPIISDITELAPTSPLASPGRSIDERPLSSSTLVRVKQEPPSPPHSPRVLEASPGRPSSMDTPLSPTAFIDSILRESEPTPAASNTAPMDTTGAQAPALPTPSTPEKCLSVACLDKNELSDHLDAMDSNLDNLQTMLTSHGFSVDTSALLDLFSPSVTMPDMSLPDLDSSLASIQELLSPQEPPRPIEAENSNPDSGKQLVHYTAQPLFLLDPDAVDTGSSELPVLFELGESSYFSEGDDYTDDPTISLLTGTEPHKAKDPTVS

Wee1-like protein kinase = Wee1-like protein kinase (Homo sapiens, UniProt P30291); experiment: Dose Response Cell-based Assay for Inhibitors of Wee1 Degradation. [Related pubchem assays: 1410, 1321 ]; type: functional
cells = type: functional
[12] = viability loss in HEK293 cells – cell-based, plate reader, cherry-picked samples, cytotoxicity control, dose response (AID 743446); type: functional
[13] = blockers of bursicon-stimulated LGR2 cAMP reporter – cell-based, HEK293, CRE-luciferase reporter, cherry pick, set 2, dose response (AID 743343); type: functional;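 note: transfected cells were stimulated with diluted bursicon conditioned medium after compound addition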
[14] = toxicity toward HepG2 liver cells – cell-based, plate reader, cherry-pick, antagonist series, cytotoxicity control, dose response (AID 743416); type: functional
[15] = THP-1 cell cytotoxicity, dose response, cytotoxicity control for non-replicating M. tuberculosis project (AID 489025); type: functional
[16] = loss of viability in HepG2 cells – cell-based, CellTiter-Glo, cherry-picked, cytotoxicity control for Shn3 inhibitor project, dose response (AID 624134); type: functional
[17] = Vero E6 cell cytotoxicity, dose response, cytotoxicity control for non-replicating M. tuberculosis project, secondary assay (AID 492998); type: functional, VeroE6; settings: Vero C1008
[18] = HEK-293T viability loss after treatment – luminescence, T-cell screen hits, cytotoxicity control for TCR NF-kB inhibitor project, dose response (AID 489026); type: functional, cell-based;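 note: cells exposed to compound about 14 hours before the viability readout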
[19] = biological target: T2, Short transient receptor potential channel 4 (Mus musculus, UniProt Q9QUQ5); experiment: potentiation of DAMGO-evoked TRPC4 calcium signal – cell-based, HEK293 TRPC4/mu-opioid, Fluo-4 calcium, EC20 DAMGO, dose response (AID 434941); type: functional
T2 sequence (Q9QUQ5 whole entry): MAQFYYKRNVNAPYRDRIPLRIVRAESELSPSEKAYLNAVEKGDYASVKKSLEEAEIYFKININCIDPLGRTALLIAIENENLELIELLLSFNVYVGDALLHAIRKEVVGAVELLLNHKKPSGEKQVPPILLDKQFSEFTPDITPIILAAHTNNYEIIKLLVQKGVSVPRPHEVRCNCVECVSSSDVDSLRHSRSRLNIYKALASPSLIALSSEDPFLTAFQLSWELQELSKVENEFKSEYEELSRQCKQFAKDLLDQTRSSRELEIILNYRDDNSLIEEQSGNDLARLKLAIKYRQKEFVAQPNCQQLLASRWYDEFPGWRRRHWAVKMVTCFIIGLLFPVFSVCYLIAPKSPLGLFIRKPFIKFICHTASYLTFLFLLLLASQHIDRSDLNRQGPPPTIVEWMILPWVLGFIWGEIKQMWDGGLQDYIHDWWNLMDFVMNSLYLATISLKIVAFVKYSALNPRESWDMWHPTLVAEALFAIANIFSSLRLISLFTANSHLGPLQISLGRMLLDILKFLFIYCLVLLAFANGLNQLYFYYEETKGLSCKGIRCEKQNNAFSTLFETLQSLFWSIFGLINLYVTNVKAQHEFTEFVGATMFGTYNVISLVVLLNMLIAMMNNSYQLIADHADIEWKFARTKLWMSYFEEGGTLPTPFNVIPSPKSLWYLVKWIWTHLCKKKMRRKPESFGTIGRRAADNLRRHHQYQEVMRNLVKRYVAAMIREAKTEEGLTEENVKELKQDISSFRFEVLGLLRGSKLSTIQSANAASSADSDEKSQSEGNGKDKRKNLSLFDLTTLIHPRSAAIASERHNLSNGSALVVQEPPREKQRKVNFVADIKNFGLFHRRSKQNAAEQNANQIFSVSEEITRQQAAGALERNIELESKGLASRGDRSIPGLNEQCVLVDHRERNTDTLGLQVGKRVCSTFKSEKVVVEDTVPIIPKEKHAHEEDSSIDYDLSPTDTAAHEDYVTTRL

Troponin, cardiac muscle = Troponin, cardiac muscle (Homo sapiens, UniProt P19429+P45379+P63316); experiment: Fluorescence-based biochemical high throughput dose response assay for activators of the calcium sensitivity of cardiac Regulated Thin Filaments (RTF). [Related pubchem assays (depositor defined):AID493008, AID493018, AID504382, AID504383]; type: protein-complex assay
Mucolipin-3 = biological target: T3, Mucolipin-3 (Homo sapiens, UniProt Q8TDD5); experiment: Fluorescence counterscreen assay for […] agonists: dose response cell-based high-throughput screening assay to identify agonists of the transient receptor potential channel ML3 (TRPML3). [Related pubchem assays: 1424, 1448 ]; type: functional
T3 sequence (Q8TDD5 whole entry): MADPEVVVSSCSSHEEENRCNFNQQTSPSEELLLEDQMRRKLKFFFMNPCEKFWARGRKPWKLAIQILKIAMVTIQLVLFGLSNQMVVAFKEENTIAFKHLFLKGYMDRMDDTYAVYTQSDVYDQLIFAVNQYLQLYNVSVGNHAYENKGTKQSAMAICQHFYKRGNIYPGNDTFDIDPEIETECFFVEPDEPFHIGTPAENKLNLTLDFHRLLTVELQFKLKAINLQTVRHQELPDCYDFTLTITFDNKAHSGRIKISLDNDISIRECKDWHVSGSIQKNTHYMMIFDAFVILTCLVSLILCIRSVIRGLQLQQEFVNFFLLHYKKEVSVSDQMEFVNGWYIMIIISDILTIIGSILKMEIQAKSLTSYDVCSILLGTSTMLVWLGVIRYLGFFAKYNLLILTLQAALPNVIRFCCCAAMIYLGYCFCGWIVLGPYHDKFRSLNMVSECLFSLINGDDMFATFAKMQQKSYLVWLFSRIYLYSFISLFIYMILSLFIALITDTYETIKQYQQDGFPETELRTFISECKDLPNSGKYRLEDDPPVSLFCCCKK

Ion channel NompC = Ion channel NompC (Danio rerio, UniProt Q7T1G6); experiment: Dose response cell-based high-throughput screening assay for agonists of the transient receptor potential channel N1 (TRPN1). [Related pubchem assays (depositor defined):AID1424, AID1448]; type: functional
Chain of Ion channel NompC (Q7T1G6 whole entry): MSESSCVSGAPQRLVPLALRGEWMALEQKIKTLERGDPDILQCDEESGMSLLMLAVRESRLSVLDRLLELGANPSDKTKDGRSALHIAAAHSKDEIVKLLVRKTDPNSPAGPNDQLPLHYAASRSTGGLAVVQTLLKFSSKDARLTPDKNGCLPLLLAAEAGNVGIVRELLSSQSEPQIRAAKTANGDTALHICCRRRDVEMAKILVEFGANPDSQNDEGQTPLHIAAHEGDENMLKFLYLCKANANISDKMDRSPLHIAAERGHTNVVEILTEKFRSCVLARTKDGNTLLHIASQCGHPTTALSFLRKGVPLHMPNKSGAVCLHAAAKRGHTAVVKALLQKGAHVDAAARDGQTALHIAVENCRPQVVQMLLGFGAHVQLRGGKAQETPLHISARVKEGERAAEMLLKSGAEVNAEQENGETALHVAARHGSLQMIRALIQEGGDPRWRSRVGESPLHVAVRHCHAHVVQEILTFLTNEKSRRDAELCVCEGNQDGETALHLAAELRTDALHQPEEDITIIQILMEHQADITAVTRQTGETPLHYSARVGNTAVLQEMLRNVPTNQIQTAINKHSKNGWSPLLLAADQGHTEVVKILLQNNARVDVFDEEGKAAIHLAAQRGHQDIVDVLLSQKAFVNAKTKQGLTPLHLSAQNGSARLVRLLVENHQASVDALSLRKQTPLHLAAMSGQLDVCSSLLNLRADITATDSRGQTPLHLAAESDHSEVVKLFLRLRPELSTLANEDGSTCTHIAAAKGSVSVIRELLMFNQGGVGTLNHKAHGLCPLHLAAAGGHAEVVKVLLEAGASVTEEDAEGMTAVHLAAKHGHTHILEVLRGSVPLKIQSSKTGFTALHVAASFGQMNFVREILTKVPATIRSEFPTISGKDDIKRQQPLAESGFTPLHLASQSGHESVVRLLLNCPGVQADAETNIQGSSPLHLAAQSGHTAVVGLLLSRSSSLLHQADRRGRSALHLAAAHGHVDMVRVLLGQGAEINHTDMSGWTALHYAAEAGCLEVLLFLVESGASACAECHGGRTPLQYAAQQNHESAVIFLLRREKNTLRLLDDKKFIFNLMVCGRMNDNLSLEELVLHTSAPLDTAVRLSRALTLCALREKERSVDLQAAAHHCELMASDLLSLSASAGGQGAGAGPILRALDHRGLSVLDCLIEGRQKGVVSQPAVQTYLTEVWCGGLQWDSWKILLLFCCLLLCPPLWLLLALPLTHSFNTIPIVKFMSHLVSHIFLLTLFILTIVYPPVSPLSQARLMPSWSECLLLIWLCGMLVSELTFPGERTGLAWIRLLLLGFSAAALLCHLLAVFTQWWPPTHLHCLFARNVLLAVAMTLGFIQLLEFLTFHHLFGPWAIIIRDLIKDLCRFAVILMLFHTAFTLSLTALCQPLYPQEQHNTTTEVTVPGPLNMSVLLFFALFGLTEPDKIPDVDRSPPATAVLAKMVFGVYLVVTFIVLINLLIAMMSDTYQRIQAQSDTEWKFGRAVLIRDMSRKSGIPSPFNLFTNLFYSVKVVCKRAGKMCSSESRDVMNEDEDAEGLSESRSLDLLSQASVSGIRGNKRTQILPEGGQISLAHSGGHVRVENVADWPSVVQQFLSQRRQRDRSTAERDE

[20] = biological target: T4, Intestinal-type alkaline phosphatase (Mus musculus, UniProt P24822); experiment: PubChem AID 488874; type: functional
T4 sequence (P24822 whole entry): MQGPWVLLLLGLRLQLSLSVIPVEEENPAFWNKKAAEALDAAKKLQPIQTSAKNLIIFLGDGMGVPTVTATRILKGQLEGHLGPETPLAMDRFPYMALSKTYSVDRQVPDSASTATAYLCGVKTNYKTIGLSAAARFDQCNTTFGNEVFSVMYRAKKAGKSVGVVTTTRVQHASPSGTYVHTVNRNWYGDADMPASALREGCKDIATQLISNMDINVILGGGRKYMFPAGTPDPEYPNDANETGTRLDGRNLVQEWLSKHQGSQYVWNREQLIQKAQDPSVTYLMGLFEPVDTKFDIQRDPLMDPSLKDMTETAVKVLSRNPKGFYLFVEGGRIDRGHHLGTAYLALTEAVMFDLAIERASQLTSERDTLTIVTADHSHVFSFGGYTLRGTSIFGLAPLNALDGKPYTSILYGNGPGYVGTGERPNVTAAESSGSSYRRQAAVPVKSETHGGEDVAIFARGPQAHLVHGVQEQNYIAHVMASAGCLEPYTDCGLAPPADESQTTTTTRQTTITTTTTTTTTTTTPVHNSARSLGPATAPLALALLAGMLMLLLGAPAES

[21] = biological target: T5, Intestinal-type alkaline phosphatase (Homo sapiens, UniProt P09923); experiment: human intestinal alkaline phosphatase activators, dose response, biochemical, luminescence, uHTS hits (AID 463120); type: functional
T5 sequence (P09923 whole entry): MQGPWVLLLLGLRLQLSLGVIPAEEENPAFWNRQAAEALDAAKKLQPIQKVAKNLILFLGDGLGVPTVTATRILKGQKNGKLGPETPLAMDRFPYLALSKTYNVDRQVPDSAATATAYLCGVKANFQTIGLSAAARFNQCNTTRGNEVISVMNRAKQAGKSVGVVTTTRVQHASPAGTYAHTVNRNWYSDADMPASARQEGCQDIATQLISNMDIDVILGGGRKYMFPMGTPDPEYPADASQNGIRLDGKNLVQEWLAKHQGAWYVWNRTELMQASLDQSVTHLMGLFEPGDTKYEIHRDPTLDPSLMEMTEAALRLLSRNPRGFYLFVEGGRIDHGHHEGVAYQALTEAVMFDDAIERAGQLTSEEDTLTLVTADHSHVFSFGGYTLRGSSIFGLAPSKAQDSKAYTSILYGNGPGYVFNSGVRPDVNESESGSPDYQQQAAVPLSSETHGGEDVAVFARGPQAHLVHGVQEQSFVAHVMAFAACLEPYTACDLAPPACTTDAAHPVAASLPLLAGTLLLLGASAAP

[22] = biological target: T5, Intestinal-type alkaline phosphatase; experiment: activation of human intestinal alkaline phosphatase – biochemical, luminescent, uHTS hits, set 2, dose response (AID 488817); type: functional;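 note: potency of activators that raise enzyme activity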
[23] = biological target: T6, Alkaline phosphatase, tissue-nonspecific isozyme (Homo sapiens, UniProt P05186); experiment: activation of tissue-nonspecific alkaline phosphatase – biochemical, TNAP isozyme, human IAP uHTS hits, selectivity assay for human IAP activator project, dose response (AID 488886); type: functional;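 note: potency of compounds raising TNAP activity as a selectivity check on IAP activators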
T6 sequence (P05186 whole entry): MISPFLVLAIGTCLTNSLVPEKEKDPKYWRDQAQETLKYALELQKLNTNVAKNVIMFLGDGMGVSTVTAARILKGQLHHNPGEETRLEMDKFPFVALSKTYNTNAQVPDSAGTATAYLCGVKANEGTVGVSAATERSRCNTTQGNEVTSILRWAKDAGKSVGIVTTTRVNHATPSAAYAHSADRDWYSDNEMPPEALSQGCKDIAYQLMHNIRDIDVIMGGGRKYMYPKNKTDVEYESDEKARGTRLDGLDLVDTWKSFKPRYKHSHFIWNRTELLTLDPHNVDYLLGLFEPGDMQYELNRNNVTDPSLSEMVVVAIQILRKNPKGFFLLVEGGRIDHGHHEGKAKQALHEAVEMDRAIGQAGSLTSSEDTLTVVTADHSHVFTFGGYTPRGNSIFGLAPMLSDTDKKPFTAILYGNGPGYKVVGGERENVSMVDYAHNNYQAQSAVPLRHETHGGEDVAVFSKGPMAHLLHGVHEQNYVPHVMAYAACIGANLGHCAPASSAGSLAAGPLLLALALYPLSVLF

[24] = biological target: T4, Intestinal-type alkaline phosphatase; experiment: PubChem AID 488875; type: functional

Chain of Cytochrome P450 3A4 (P08684 whole entry, the tested form may be a part): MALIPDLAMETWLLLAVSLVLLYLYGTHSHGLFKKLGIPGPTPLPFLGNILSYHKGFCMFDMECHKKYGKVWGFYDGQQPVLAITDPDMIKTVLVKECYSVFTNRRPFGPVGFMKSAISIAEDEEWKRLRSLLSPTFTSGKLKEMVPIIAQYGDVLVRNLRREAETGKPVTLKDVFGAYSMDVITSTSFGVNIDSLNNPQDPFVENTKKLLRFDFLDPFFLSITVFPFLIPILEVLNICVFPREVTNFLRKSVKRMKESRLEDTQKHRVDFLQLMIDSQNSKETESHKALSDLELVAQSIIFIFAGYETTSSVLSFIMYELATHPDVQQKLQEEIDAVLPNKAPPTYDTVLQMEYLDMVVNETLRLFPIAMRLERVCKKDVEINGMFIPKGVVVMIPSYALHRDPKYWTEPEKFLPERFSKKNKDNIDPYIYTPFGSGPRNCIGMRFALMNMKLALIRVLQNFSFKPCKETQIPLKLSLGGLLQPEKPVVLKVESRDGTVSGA

Compound: CCOc1cc2[nH]c(=S)n(CCC(=O)N3CCc4ccccc4C3)c(=O)c2cc1OCC
- AC50 (Cytochrome P450 3A4): 3.55 µM (inconclusive)
- EC50 [1]: > 100 µM (inactive)

Compound: CCOC(=O)C(=Cc1ccccc1OC)C(=O)OCC
- IC50 (Perilipin-1/ABHD5): 11.5 µM (inactive)
- IC50 [2]: 15.3 µM (inactive)

Compound: COc1cc(S(=O)(=O)N2CCOCC2)ccc1NC(=O)c1cc2c(s1)CCC2
- EC50 [3]: 2.83 µM (active)

Compound: Cc1ccc(C#N)c(OCCOc2ccc(Cl)cc2Cl)n1
- EC50 [4]: > 50 µM (inactive)

Compound: O=C1C=CC(O)(c2cc(=O)c3c(O)cc(O)cc3o2)C=C1 [PROTOAPIGENONE]
- EC50 [5]: > 1.84 µM (active)
- AC50 [6]: 27.1 µM (active)
- AC50 [7]: 6.31 µM (active)
- CC50 [8]: 5.74 µM (active)
- AC50 [9]: 5.12 µM (active)
- CC50 (HeLa): > 1.22 µM (not active)
- AC50 [10]: 4.47 µM (active)
- EC50 [11]: 4.28 µM (active)
- EC50 (Wee1-like protein kinase): > 1.84 µM (active)
- IC50 (cells): 3.02 µM (active)
- AC50 [12]: 5.13 µM (active)
- AC50 [13]: 21.4 µM (active)
- AC50 [14]: 7.09 µM (active)
- CC50 [15]: 2.6 µM (active)
- AC50 [16]: 32.3 µM (active)
- CC50 [17]: 3.28 µM (active)
- IC50 [18]: > 80 µM (inactive)

Compound: Cc1cccc(/C=N/NC(=O)c2cccc(Cl)c2)n1
- EC50 [19]: 5.31 µM (active)

Compound: COC(=O)C(=N/Nc1ccccc1C(=O)OC)/C(C)=N/O
- EC50 (Troponin, cardiac muscle): > 71.5 µM (inactive)

Compound: COC(=O)c1cccc(NC(=O)Nc2ccc(Cl)cc2)c1
- EC50 (Mucolipin-3): > 29.9 µM (not active)
- EC50 (Ion channel NompC): > 29.9 µM (inactive)

Compound: CC(NS(=O)(=O)c1ccc(Br)cc1)C(=O)Nc1nc2ccccc2[nH]1 (configuration not stated)
- IC50 [20]: > 100 µM (inactive)
- EC50 [21]: 11 µM (active)
- EC50 [22]: 13.3 µM (active)
- EC50 [23]: 14.3 µM (active)
- EC50 [24]: > 100 µM (inactive)

— ChEMBL document CHEMBL1201862, “PubChem BioAssay data set” (2004)
